Measurements: PubChem BioAssay AID328 (DTP/NCI, 2004)
Where “and” joins values, the source holds several entries; their conditions need not be identical. Equal entries are not always repeated. Toxic doses and inconclusive results are not listed.

Test system: BDF1 mice, P388 leukemia ip, median survival T/C
Assay: NCI In Vivo Anticancer Drug Screen. Data for tumor model P388 Leukemia (intraperitoneal) in B6D2F1 (BDF1) mice
Conditions: endpoint: median survival time, higher = longer survival
Procedure, shortened: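 Survival ratio, drug arm over vehicle arm, in mice with a transplanted tumour.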

[1] = dose: 100.0 mg/kg/injection, schedule: Q04DX003 (ip), vehicle: saline
[2] = dose: 200.0 mg/kg/injection, schedule: Q04DX003 (ip), vehicle: saline
[3] = dose: 100.0 mg/kg/injection, schedule: Q04DX003 (ip), vehicle: saline with Tween-80
[4] = dose: 200.0 mg/kg/injection, schedule: Q04DX003 (ip), vehicle: saline with Tween-80
[5] = dose: 400.0 mg/kg/injection, schedule: Q04DX003 (ip), vehicle: saline with Tween-80
[6] = dose: 25.0 mg/kg/injection, schedule: Q04DX003 (ip), vehicle: Klucel (hydroxypropylcellulose) (HPC)
[7] = dose: 50.0 mg/kg/injection, schedule: Q04DX003 (ip), vehicle: Klucel (hydroxypropylcellulose) (HPC)
[8] = dose: 50.0 mg/kg/injection, schedule: Q01DX009 (ip), vehicle: Klucel (hydroxypropylcellulose) (HPC)
[9] = dose: 100.0 mg/kg/injection, schedule: Q01DX009 (ip), vehicle: Klucel (hydroxypropylcellulose) (HPC)
[10] = dose: 50.0 mg/kg/injection, schedule: Q01DX009 (ip), vehicle: saline with Tween-80
[11] = dose: 100.0 mg/kg/injection, schedule: Q01DX009 (ip), vehicle: saline with Tween-80
[12] = dose: 200.0 mg/kg/injection, schedule: Q01DX009 (ip), vehicle: saline with Tween-80
[13] = dose: 25.0 mg/kg/injection, schedule: Q01DX009 (ip), vehicle: saline

Structure (SMILES): CS(=O)(=O)OCCCl
- T/C (dose: 18.8 mg/kg/injection, schedule: Q01DX010 (ip), vehicle: saline): 105 % of control and 120 % of control
- T/C (dose: 37.5 mg/kg/injection, schedule: Q01DX010 (ip), vehicle: saline): 100 % of control and 110 % of control
- T/C (dose: 75.0 mg/kg/injection, schedule: Q01DX010 (ip), vehicle: saline): 100 % of control

Structure (SMILES): CCCCCCCCCC(O)CCCCCCCCC
- T/C (dose: 100.0 mg/kg/injection, schedule: Q01DX009 (ip), vehicle: other): 100 % of control
- T/C (dose: 200.0 mg/kg/injection, schedule: Q01DX009 (ip), vehicle: other): 95 % of control
- T/C (dose: 400.0 mg/kg/injection, schedule: Q01DX009 (ip), vehicle: other): 110 % of control

Structure (SMILES): O=[N+]([O-])c1ccc(Nc2ccncc2)cc1
- T/C [1]: 104 % of control
- T/C [2]: 95 % of control
- T/C (dose: 400.0 mg/kg/injection, schedule: Q04DX003 (ip), vehicle: saline): 104 % of control

Structure (SMILES): CC1(C)COC(c2ccc(C(C)(C)C)cc2C(O)(c2cc(C(C)(C)C)ccc2C2=NC(C)(C)CO2)c2cc(C(C)(C)C)ccc2C2=NC(C)(C)CO2)=N1
- T/C [3]: 92 % of control and 94 % of control
- T/C [4]: 94 % of control
- T/C [5]: 90 % of control and 94 % of control

Structure (SMILES): ClCCN(CCCl)CCN1c2ccccc2Sc2ccccc21
- T/C (dose: 0.79 mg/kg/injection, schedule: Q01DX009 (ip), vehicle: Klucel (hydroxypropylcellulose) (HPC)): 90 % of control
- T/C (dose: 1.1 mg/kg/injection, schedule: Q01DX009 (ip), vehicle: Klucel (hydroxypropylcellulose) (HPC)): 90 % of control
- T/C (dose: 2.5 mg/kg/injection, schedule: Q01DX009 (ip), vehicle: saline with Tween-80): 150 % of control
- T/C (dose: 4.0 mg/kg/injection, schedule: Q01DX009 (ip), vehicle: Klucel (hydroxypropylcellulose) (HPC)): 170 % of control
- T/C (dose: 5.0 mg/kg/injection, schedule: Q01DX009 (ip), vehicle: saline with Tween-80): 186 % of control
- T/C (dose: 9.37 mg/kg/injection, schedule: Q01DX009 (ip), vehicle: Klucel (hydroxypropylcellulose) (HPC)): 150 % of control
- T/C (dose: 10.0 mg/kg/injection, schedule: Q01DX009 (ip), vehicle: saline with Tween-80): 186 % of control
- T/C (dose: 12.5 mg/kg/injection, schedule: Q04DX003 (ip), vehicle: Klucel (hydroxypropylcellulose) (HPC)): 160 % of control
- T/C (dose: 17.0 mg/kg/injection, schedule: Q04DX003 (ip), vehicle: Klucel (hydroxypropylcellulose) (HPC)): 166 % of control
- T/C (dose: 17.5 mg/kg/injection, schedule: Q04DX003 (ip), vehicle: Klucel (hydroxypropylcellulose) (HPC)): 185 % of control
- T/C (dose: 20.0 mg/kg/injection, schedule: Q01DX009 (ip), vehicle: saline with Tween-80): 95 % of control
- T/C (dose: 23.0 mg/kg/injection, schedule: Q04DX003 (ip), vehicle: Klucel (hydroxypropylcellulose) (HPC)): 109 % of control
- T/C [6]: 175 % of control and 200 % of control
- T/C (dose: 35.0 mg/kg/injection, schedule: Q04DX003 (ip), vehicle: Klucel (hydroxypropylcellulose) (HPC)): 109 % of control and 210 % of control
- T/C (dose: 37.0 mg/kg/injection, schedule: Q04DX003 (ip), vehicle: Klucel (hydroxypropylcellulose) (HPC)): 185 % of control
- T/C (dose: 37.5 mg/kg/injection, schedule: Q01DX009 (ip), vehicle: Klucel (hydroxypropylcellulose) (HPC)): 170 % of control
- T/C [7]: 109 % of control
- T/C (dose: 50.0 mg/kg/injection, schedule: Q04DX003 (ip), vehicle: saline with Tween-80): 104 % of control

Structure (SMILES): C#CC[N+]1=CN(c2ccc(C)cc2)Cc2cc(C)ccc21
- T/C [6]: 105 % of control
- T/C [8]: 122 % of control
- T/C [7]: 100 % of control
- T/C [9]: 122 % of control
- T/C (dose: 100.0 mg/kg/injection, schedule: Q04DX003 (ip), vehicle: Klucel (hydroxypropylcellulose) (HPC)): 95 % of control and 100 % of control and 109 % of control
- T/C (dose: 150.0 mg/kg/injection, schedule: Q04DX003 (ip), vehicle: Klucel (hydroxypropylcellulose) (HPC)): 100 % of control and 110 % of control
- T/C (dose: 225.0 mg/kg/injection, schedule: Q04DX003 (ip), vehicle: Klucel (hydroxypropylcellulose) (HPC)): 110 % of control

Structure (SMILES): O=C1C[C@H]2[C@H](CO)[C@@H](OC(=O)c3ccc(-c4ccccc4)cc3)C[C@H]2O1
- T/C (dose: 12.5 mg/kg/injection, schedule: Q01DX009 (ip), vehicle: Klucel (hydroxypropylcellulose) (HPC)): 105 % of control
- T/C (dose: 25.0 mg/kg/injection, schedule: Q01DX009 (ip), vehicle: Klucel (hydroxypropylcellulose) (HPC)): 115 % of control
- T/C [8]: 105 % of control
- T/C (dose: 75.0 mg/kg/injection, schedule: Q01DX009 (ip), vehicle: saline with Tween-80): 120 % of control

Structure (SMILES): Cc1cc(S(=O)(=O)c2ccc(Cl)c(C)c2)ccc1Cl
- T/C [10]: 105 % of control
- T/C [11]: 100 % of control
- T/C [12]: 91 % of control

Structure (SMILES): NCC(=O)O.[Cl][Ga]([Cl])[Cl]
- T/C [13]: 120 % of control

Structure (SMILES): O=C1CN(Cc2ccc(Cl)cc2)CC(=O)N2CCCN12
- T/C (dose: 50.0 mg/kg/injection, schedule: Q01DX005 (ip), vehicle: saline with Tween-80): 92 % of control

Structure (SMILES): Cc1[nH]nc(C(N)=O)c1N=NN(C)C
- T/C (dose: 132.0 mg/kg/injection, schedule: Q04DX003 (ip), vehicle: saline with Tween-80): 182 % of control
- T/C [4]: 186 % of control
- T/C (dose: 300.0 mg/kg/injection, schedule: Q04DX003 (ip), vehicle: saline with Tween-80): 100 % of control

Structure (SMILES): CCOc1ccc(NC(=O)OCCN2CCN(CCc3ccccc3)C(C)C2)cc1 (centres undefined)
- T/C [10]: 94 % of control
- T/C [11]: 98 % of control

Structure (SMILES): Cc1ccc(NC(=O)c2ccccc2Cl)c(C)c1
- T/C [3]: 100 % of control
- T/C [4]: 100 % of control
- T/C [5]: 109 % of control

Structure (SMILES): O=C(CCl)NCc1cnccn1
- T/C [13]: 107 % of control
- T/C (dose: 50.0 mg/kg/injection, schedule: Q01DX009 (ip), vehicle: saline): 102 % of control
- T/C (dose: 100.0 mg/kg/injection, schedule: Q01DX009 (ip), vehicle: saline): 108 % of control
- T/C [1]: 94 % of control
- T/C (dose: 200.0 mg/kg/injection, schedule: Q01DX009 (ip), vehicle: saline): 102 % of control
- T/C [2]: 117 % of control

Structure (SMILES): CC1(C)CC(C)(c2ccccc2)c2ccccc21 (centres undefined)
- T/C [9]: 120 % of control
- T/C (dose: 100.0 mg/kg/injection, schedule: Q04DX003 (ip), vehicle: other): 109 % of control
- T/C (dose: 132.0 mg/kg/injection, schedule: Q01DX009 (ip), vehicle: Klucel (hydroxypropylcellulose) (HPC)): 90 % of control
- T/C (dose: 200.0 mg/kg/injection, schedule: Q04DX003 (ip), vehicle: other): 114 % of control
- T/C (dose: 300.0 mg/kg/injection, schedule: Q01DX009 (ip), vehicle: Klucel (hydroxypropylcellulose) (HPC)): 100 % of control
- T/C (dose: 400.0 mg/kg/injection, schedule: Q04DX003 (ip), vehicle: other): 104 % of control

Structure (SMILES): O=C(O)CCCCCNC(=O)OCc1ccccc1
- T/C (dose: 100.0 mg/kg/injection, schedule: Q01DX009 (ip), vehicle: gum acacia): 112 % of control
- T/C (dose: 100.0 mg/kg/injection, schedule: Q04DX003 (ip), vehicle: gum acacia): 100 % of control
- T/C (dose: 200.0 mg/kg/injection, schedule: Q01DX009 (ip), vehicle: gum acacia): 104 % of control
- T/C (dose: 200.0 mg/kg/injection, schedule: Q04DX003 (ip), vehicle: gum acacia): 100 % of control
- T/C (dose: 400.0 mg/kg/injection, schedule: Q01DX009 (ip), vehicle: gum acacia): 108 % of control
- T/C (dose: 400.0 mg/kg/injection, schedule: Q04DX003 (ip), vehicle: gum acacia): 116 % of control

Structure (SMILES): CC(C)(C)[Si](C)(C)OC(=O)Nc1ccc(N(CCCl)CCCl)cc1
- T/C (dose: 0.05 mg/kg/injection, schedule: Q01DX009 (ip), vehicle: saline with Tween-80): 104 % of control
- T/C (dose: 0.07 mg/kg/injection, schedule: Q01DX009 (ip), vehicle: saline with Tween-80): 114 % of control
- T/C (dose: 0.11 mg/kg/injection, schedule: Q01DX009 (ip), vehicle: saline with Tween-80): 117 % of control
- T/C (dose: 0.16 mg/kg/injection, schedule: Q01DX009 (ip), vehicle: saline with Tween-80): 108 % of control
- T/C (dose: 0.32 mg/kg/injection, schedule: Q01DX009 (ip), vehicle: saline with Tween-80): 107 % of control

Structure (SMILES): COc1ccc(Cc2cc3cc(OC)c(OC)cc3cn2)cc1OC
- T/C [3]: 110 % of control
- T/C [12]: 103 % of control
- T/C [4]: 112 % of control
- T/C (dose: 300.0 mg/kg/injection, schedule: Q01DX009 (ip), vehicle: saline with Tween-80): 114 % of control
- T/C (dose: 400.0 mg/kg/injection, schedule: Q01DX009 (ip), vehicle: saline with Tween-80): 103 % of control
- T/C [5]: 116 % of control
- T/C (dose: 500.0 mg/kg/injection, schedule: Q01DX009 (ip), vehicle: saline with Tween-80): 103 % of control
